Patent US20250120967A1, “TYROSINE KINASES INHIBITORS AND USES THEREOF” (GREAT NOVEL THERAPEUTICS BIOTECH & MEDICALS CORPORATION, priority 2023, published 2025)
Values joined by “and” are separate entries in the source; they are usually repeats but may differ in a detail not shown here. Equal entries are not always repeated.

Experiments:
[1] = test system: CT26 cells; assay: Tumor rechallenge test, CT26 rechallenge; assay type: in vivo, Balb/c mice; conditions: Table 9, CT26 rechallenge, GNTbm-38-K30 20 mg/kg, Regorafenib 30 mg/kg, Cbo-23 30 mg/kg
Protocol: (§1) Mice evaluated as CR/PR can enter the rechallenge study. All mice with PR/CR response went through rechallenges with CT26 cells on the contralateral side. The first rechallenge was performed after second assessment with a tumor dose of 1×10^6 cells per mouse. After 7 days of growth, CT26 and LLC1 tumor sizes were used as the baseline. Tumor growth was monitored for a duration of 11 days, and on the 11th day, a tumor size assessment was conducted relative to the baseline. If both of the following criteria are met, the response will be considered as relapse: first, the tumor size was over 1.5 folds when compared to that of baseline; second, the tumor volume was over 150 mm^3.
(§2) If both of the following criteria are met, the response will be considered as relapse: first, the tumor size over 1.5 folds when compared to that of baseline; second, the tumor volume at day 67 was over 150 mm^3.
(§3) If both of the following criteria are met, the response will be considered as relapse: first, the tumor size was over 1.5 folds when compared to that of baseline; second, the tumor volume at day 56 was over 150 mm^3.

[2] = test system: LLC1; assay: Tumor rechallenge test, LLC1 rechallenge; assay type: in vivo; conditions: Table 9, LLC1 rechallenge, GNTbm-38-K30 20 mg/kg, Regorafenib 30 mg/kg, Cbo-23 30 mg/kg
Protocol: as §1, §2, §3

COc1cc2nccc(Oc3ccc(NC(=O)C4(C(=O)Nc5ccc(F)cc5)CC4)cc3F)c2cc1Oc1ccc(N)cc1F [Cbo-23] was tested, and the “Day 56 Fold change” value ([1]; individual mice, vs Day 45) was 2.6 and 0, the “Day 45 mm^3 (baseline tumor size)” value ([1]; individual mice) was 119.17 mm^3 and 60.82 mm^3 and the “Day 56 mm^3” value ([1]; individual mice) was 309.20 mm^3 and 0 mm^3. For the same compound, the Score ([1]; individual mice) was “+ (If both of the following criteria are met, the response will be considered as relapse: first, the tumor size was over 1.5 folds when compared to that of baseline; second, the tumor volume at day 56 was over 150 mm^3.)”, the “Immunity Percentage” value [1] was 50% (1/2) and the “Day 56 Fold change” value ([2]; individual mice, vs Day 45) was 2.5 and 1.0. The “Day 45 mm^3 (baseline tumor size)” value ([2]; individual mice) was 163.76 mm^3 and 173.53 mm^3, the “Day 56 mm^3” value ([2]; individual mice) was 403.54 mm^3 and 169.80 mm^3 and the Score ([2]; individual mice) was “+ (If both of the following criteria are met, the response will be considered as relapse: first, the tumor size was over 1.5 folds when compared to that of baseline; second, the tumor volume at day 56 was over 150 mm^3.)”. For the same compound, the “Immunity Percentage” value [2] was 50% (1/2).
